Results published in ChEMBL document CHEMBL5321287, “Discovery, Synthesis, and Evaluation of Novel Dual Inhibitors of a Vascular Endothelial Growth Factor Receptor and Poly(ADP-Ribose) Polymerase for BRCA Wild-Type Breast Cancer Therapy” (J Med Chem, 2023).

Legend:
[1] = target: Serine/threonine-protein kinase 16 (Homo sapiens, UniProt O75716); assay: Inhibition of MPSK1 (unknown origin) by Z'-Lyte kinase assay
[2] = Half life in Sprague-Dawley rat at 10 mg/kg, po via gavage by LC-MS analysis; type: ADME, organism-based; conditions: in vivo
[3] = Toxicity in BALB/c nude mouse xenografted with human MDA-MB-231 cells assessed as damage in spleen at 25 to 50 mg/kg, po for 14 days; type: organism-based; conditions: in vivo, 336 h, dose 25-50 mg/kg, time 14 day
[4] = target: Macrophage colony-stimulating factor 1 receptor (Homo sapiens, UniProt P07333); assay: Inhibition of FMS (unknown origin) by Z'-Lyte kinase assay
[5] = AUC (0 to t) in Sprague-Dawley rat at 10 mg/kg, po via gavage by LC-MS analysis; type: ADME, organism-based; parameters: dose 10 mg/kg, route po; conditions: in vivo
[6] = target: Mitogen-activated protein kinase kinase kinase 11 (Homo sapiens, UniProt Q16584); assay: Inhibition of MLK3 (unknown origin) by Z'-Lyte kinase assay
[7] = Apparent volume of distribution in Sprague-Dawley rat at 1 mg/kg, iv by LC-MS analysis; type: ADME, organism-based; conditions: in vivo, read-out: Vz
[8] = Cmax in Sprague-Dawley rat at 10 mg/kg, po via gavage by LC-MS analysis; type: ADME, organism-based; parameters: dose 10 mg/kg, route po; conditions: in vivo
[9] = Clearance in Sprague-Dawley rat at 1 mg/kg, iv by LC-MS analysis; type: ADME, organism-based; conditions: in vivo
[10] = target: Vascular endothelial growth factor receptor 3 (Homo sapiens, UniProt P35916); assay: Inhibition of VEGFR3 (unknown origin) by Z'-Lyte kinase assay
[11] = Toxicity in BALB/c nude mouse xenografted with human MDA-MB-231 cells assessed as damage in lungs at 25 to 50 mg/kg, po for 14 days; type: organism-based; conditions: in vivo, 336 h, dose 25-50 mg/kg, time 14 day
[12] = Toxicity in BALB/c nude mouse xenografted with human MDA-MB-231 cells assessed as damage in liver at 25 to 50 mg/kg, po for 14 days; type: organism-based; conditions: in vivo, 336 h, dose 25-50 mg/kg, time 14 day
[13] = AUC (0 to infinity) in Sprague-Dawley rat at 1 mg/kg, iv by LC-MS analysis; type: ADME, organism-based; parameters: dose 1 mg/kg, route iv; conditions: in vivo
[14] = Oral bioavailability in Sprague-Dawley rat at 10 mg/kg administered via gavage by LC-MS analysis; type: ADME, organism-based; conditions: in vivo
[15] = Toxicity in BALB/c nude mouse xenografted with human MDA-MB-231 cells assessed as change in body weight at 25 to 50 mg/kg, po for 14 days; type: organism-based; conditions: in vivo, 336 h, dose 25-50 mg/kg, time 14 day
[16] = target: Vascular endothelial growth factor receptor 1 (Homo sapiens, UniProt P17948); assay: Inhibition of VEGFR1 (unknown origin) by Z'-Lyte kinase assay
[17] = target: T1, Serine/threonine-protein kinase TAO2 (Homo sapiens, UniProt Q9UL54); assay: Inhibition of TAO2 (unknown origin) by Z'-Lyte kinase assay
T1 sequence (Q9UL54 whole entry): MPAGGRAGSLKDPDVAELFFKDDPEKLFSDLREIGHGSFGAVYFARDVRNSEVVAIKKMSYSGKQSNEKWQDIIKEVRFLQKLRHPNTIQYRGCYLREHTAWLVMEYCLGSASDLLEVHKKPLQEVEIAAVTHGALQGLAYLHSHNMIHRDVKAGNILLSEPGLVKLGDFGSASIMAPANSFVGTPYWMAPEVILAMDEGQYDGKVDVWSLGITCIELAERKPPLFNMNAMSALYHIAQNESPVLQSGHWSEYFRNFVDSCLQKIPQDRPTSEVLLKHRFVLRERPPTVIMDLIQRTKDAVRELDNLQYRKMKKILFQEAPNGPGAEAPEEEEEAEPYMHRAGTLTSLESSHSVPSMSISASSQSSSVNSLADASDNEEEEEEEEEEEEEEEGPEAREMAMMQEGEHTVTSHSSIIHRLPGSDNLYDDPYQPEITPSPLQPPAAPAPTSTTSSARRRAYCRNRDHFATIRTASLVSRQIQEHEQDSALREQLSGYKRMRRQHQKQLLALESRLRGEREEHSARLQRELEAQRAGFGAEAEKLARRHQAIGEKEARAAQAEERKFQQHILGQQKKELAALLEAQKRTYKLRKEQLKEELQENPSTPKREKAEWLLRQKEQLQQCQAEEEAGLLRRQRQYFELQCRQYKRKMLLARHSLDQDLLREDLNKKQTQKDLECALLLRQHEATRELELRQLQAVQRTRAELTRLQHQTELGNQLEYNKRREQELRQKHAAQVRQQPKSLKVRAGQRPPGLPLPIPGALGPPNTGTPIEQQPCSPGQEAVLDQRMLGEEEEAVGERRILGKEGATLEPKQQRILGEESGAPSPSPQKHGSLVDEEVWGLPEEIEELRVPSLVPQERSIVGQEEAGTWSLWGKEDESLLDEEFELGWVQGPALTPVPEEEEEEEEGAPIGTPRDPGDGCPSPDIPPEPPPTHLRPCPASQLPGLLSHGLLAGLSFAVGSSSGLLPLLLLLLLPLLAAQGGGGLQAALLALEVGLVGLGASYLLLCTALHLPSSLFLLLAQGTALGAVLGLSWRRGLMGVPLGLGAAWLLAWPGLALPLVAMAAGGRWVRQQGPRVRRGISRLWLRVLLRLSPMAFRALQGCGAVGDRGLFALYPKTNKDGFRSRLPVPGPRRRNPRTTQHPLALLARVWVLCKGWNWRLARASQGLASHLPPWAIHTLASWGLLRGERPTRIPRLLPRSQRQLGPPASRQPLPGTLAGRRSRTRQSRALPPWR

[18] = AUC (0 to t) in Sprague-Dawley rat at 1 mg/kg, iv by LC-MS analysis; type: ADME, organism-based; parameters: dose 1 mg/kg, route iv; conditions: in vivo
[19] = Half life in Sprague-Dawley rat at 1 mg/kg, iv by LC-MS analysis; type: ADME, organism-based; conditions: in vivo
[20] = Cmax in Sprague-Dawley rat at 1 mg/kg, iv by LC-MS analysis; type: ADME, organism-based; parameters: dose 1 mg/kg, route iv; conditions: in vivo
[21] = AUC (0 to infinity) in Sprague-Dawley rat at 10 mg/kg, po via gavage by LC-MS analysis; type: ADME, organism-based; parameters: dose 10 mg/kg, route po; conditions: in vivo
[22] = Toxicity in BALB/c nude mouse xenografted with human MDA-MB-231 cells assessed as damage in kidney at 25 to 50 mg/kg, po for 14 days; type: organism-based; conditions: in vivo, 336 h, dose 25-50 mg/kg, time 14 day
[23] = target: Poly [ADP-ribose] polymerase 2 (Homo sapiens, UniProt Q9UGN5); assay: Inhibition of PARP2 (unknown origin)
[24] = Toxicity in BALB/c nude mouse xenografted with human MDA-MB-231 cells assessed as damage in heart at 25 to 50 mg/kg, po for 14 days; type: organism-based; conditions: in vivo, 336 h, dose 25-50 mg/kg, time 14 day

Macrophage colony-stimulating factor 1 receptor, sequence (P07333 whole entry): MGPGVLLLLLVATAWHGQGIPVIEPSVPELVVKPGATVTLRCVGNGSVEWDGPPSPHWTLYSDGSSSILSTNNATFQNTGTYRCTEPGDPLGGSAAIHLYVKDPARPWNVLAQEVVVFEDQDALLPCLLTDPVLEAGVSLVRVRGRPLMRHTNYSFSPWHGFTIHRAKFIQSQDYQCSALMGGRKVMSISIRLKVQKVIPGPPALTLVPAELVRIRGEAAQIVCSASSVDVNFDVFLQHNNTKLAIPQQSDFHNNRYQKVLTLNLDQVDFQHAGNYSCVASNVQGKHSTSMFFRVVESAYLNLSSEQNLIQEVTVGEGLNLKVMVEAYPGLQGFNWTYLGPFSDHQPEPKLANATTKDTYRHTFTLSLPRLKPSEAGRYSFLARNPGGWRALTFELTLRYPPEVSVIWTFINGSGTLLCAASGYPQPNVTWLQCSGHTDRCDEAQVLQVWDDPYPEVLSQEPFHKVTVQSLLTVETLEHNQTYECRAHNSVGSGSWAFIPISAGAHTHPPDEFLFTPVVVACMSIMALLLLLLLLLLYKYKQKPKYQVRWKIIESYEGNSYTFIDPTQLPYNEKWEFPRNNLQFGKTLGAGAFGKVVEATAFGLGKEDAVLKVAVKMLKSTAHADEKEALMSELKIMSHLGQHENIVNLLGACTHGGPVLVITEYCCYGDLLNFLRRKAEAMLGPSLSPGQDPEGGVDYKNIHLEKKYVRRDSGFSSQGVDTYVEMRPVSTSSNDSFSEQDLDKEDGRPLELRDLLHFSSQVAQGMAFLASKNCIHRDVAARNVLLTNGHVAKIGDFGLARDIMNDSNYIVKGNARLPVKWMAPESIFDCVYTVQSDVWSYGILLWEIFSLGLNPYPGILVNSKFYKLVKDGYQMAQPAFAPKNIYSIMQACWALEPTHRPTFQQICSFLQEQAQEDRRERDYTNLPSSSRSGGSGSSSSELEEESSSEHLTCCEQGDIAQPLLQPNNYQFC
Vascular endothelial growth factor receptor 3, sequence (P35916 whole entry): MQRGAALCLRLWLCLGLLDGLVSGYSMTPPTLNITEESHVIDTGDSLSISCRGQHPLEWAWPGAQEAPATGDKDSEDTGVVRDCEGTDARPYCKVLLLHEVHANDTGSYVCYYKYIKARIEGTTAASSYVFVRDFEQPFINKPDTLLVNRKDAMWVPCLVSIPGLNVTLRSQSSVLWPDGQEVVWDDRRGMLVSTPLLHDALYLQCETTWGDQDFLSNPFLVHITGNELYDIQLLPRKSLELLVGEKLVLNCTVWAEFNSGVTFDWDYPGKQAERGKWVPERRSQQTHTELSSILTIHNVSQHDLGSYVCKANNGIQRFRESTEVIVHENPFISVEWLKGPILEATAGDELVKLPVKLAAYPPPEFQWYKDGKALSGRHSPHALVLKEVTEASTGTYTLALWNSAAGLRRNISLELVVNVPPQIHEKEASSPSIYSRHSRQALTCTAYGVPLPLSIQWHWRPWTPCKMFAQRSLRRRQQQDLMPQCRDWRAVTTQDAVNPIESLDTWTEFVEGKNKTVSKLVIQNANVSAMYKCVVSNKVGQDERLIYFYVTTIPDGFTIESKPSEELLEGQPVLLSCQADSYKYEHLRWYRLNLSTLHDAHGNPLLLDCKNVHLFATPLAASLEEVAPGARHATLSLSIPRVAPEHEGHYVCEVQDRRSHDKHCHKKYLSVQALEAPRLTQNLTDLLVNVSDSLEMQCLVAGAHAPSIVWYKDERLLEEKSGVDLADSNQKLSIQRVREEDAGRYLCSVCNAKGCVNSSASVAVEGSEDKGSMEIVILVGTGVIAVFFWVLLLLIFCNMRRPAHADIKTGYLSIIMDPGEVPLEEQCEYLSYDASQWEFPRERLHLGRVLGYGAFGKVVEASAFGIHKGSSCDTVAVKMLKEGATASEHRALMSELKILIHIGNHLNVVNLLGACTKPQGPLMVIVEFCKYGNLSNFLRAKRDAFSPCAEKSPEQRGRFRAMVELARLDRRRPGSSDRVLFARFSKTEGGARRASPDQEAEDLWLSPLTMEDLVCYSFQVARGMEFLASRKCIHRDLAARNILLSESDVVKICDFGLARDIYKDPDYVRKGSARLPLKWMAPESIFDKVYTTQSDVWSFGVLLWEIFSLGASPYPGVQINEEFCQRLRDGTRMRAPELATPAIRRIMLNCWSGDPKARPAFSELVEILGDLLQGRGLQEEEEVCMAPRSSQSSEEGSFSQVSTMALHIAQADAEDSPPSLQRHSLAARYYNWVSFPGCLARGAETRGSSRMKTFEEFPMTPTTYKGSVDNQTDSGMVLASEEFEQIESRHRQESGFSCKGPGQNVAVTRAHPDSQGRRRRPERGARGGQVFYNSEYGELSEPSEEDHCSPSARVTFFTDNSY
Poly [ADP-ribose] polymerase 2, sequence (Q9UGN5 whole entry): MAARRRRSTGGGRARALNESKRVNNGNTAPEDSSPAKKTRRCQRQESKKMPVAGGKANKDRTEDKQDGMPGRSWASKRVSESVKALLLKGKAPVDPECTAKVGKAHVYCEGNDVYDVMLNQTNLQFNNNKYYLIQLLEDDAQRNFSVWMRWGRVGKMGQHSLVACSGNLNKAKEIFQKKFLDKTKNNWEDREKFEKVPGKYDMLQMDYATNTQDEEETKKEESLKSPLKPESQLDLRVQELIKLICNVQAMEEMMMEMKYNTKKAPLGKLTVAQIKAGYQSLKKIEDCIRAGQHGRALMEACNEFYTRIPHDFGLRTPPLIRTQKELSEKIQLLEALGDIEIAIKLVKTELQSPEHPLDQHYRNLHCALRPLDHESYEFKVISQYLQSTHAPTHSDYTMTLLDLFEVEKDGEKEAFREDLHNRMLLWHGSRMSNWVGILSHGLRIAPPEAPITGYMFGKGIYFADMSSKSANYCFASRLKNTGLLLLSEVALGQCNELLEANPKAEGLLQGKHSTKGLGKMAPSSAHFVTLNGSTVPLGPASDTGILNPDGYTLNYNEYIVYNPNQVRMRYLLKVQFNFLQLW
Serine/threonine-protein kinase 16, sequence (O75716 whole entry): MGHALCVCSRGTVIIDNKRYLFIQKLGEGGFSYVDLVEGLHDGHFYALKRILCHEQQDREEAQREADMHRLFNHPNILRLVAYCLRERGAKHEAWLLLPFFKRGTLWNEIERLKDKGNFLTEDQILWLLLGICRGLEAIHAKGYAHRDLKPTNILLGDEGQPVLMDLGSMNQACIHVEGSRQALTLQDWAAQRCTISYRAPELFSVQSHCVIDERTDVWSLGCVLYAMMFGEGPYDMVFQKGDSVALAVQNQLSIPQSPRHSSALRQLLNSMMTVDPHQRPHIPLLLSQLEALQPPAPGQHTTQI
Mitogen-activated protein kinase kinase kinase 11, sequence (Q16584 whole entry): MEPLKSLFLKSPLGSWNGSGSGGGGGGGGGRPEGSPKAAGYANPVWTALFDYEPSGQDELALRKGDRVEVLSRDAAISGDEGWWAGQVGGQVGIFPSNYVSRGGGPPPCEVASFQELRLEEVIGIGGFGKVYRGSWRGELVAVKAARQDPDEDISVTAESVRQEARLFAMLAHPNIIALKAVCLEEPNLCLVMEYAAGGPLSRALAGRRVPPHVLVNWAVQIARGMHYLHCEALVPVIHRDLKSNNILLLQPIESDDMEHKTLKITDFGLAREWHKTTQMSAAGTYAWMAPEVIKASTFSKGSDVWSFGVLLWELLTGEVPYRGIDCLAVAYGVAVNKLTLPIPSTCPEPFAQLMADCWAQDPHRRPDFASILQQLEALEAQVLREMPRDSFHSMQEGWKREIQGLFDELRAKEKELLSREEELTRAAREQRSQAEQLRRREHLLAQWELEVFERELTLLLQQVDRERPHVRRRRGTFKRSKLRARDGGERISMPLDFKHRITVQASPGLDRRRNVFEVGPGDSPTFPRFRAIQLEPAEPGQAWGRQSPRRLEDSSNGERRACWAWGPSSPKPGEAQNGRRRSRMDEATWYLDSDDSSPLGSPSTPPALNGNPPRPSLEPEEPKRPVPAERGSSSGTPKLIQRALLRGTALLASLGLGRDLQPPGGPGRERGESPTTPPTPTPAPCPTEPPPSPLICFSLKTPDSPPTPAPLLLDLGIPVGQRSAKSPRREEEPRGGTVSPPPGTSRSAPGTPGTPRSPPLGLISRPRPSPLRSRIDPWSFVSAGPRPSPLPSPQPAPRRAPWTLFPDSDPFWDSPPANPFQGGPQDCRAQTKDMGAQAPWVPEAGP

## Cc1ccc(Nc2nccc(N(C)c3ccc4c(C)n(C)nc4c3)n2)cc1-c1nc2c(C(N)=O)cccc2[nH]1
[1]
  IC50: 148 nM
[2]
  half-life: 60 min
[3]
  Activity: Non-Toxic
[4]
  IC50: 299 nM
[5]
  AUC(0-t): 4900 ng·h/mL
[6]
  IC50: 347 nM
[7]
  Vd: 2.2 L/kg
[8]
  Cmax: 2430 ng/mL
[9]
  clearance: 20.9 mL/min/kg
[10]
  IC50: 499 nM
[11]
  Activity: Non-Toxic
[12]
  Activity: Non-Toxic
[13]
  AUC(0-inf): 821 ng·h/mL
[14]
  bioavailability: 60.1%
[15]
  Activity: Non-Toxic
[16]
  IC50: 166 nM
[17]
  IC50: 689 nM
[18]
  AUC(0-t): 815 ng·h/mL
[19]
  half-life: 72 min
[20]
  Cmax: 482 ng/mL
[21]
  AUC(0-inf): 4920 ng·h/mL
[22]
  Activity: Non-Toxic
[23]
  IC50: 78.4 nM
[24]
  Activity: Non-Toxic
